Assay: Anticancer human tumor 997537-175-T-J1-PDC patient-derived colon adenocarcinoma cell line growth inhibition [POLQ]
Settings: 997537-175-T-J1-PDC complex spheroid viability, combination with POLQ inhibitors; for IC50: curve of first compound; for viability, T/C: stronger effect = lower value
Summary of the method: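 Growth inhibition in 3D: complex spheroids (tumor PDC, HUVEC, MSC) treated with POLQ inhibitor combinations; where Cmax unknown, highest tested concentration 10 microM, except SN-38 at 1 microM.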
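Note: luminescence signal used as a surrogate for viable cells; spheroids exposed to drugs for seven days before readout.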

`CC1COCCN1c1cc(-c2ccnn2C)c2ccnc(-c3ccn[nH]3)c2n1` (configuration not stated) + Nc1ccc(C#CCN(C(=O)Cc2ncc(C(F)(F)F)cc2C(F)(F)F)c2ccc(F)cc2)nn1 gave an IC50 (second compound 0.0316 µM) greater than 10 µM, an IC50 (second compound 0.1 µM) of 3.16 µM and an IC50 (second compound 0.316 µM) greater than 10 µM. For the same compound, the IC50 (second compound 1 µM) was greater than 10 µM, the IC50 (second compound 3.16 µM) was 3.16 µM and the IC50 (second compound 10 µM) was 0.305 µM. For the same compound, the viability, T/C (second compound 0.0316 µM, first compound 0.0316 µM) was 103%, the viability, T/C (second compound 0.0316 µM, first compound 0.1 µM) was 83.6% and the viability, T/C (second compound 0.0316 µM, first compound 0.316 µM) was 58.3%. For the same compound, the viability, T/C (second compound 0.0316 µM, first compound 1 µM) was 49.4%, the viability, T/C (second compound 0.0316 µM, first compound 3.16 µM) was 36.8% and the viability, T/C (second compound 0.0316 µM, first compound 10 µM) was 71.6%. The viability, T/C (second compound 0.1 µM, first compound 0.0316 µM) was 101%, the viability, T/C (second compound 0.1 µM, first compound 0.1 µM) was 92.2% and the viability, T/C (second compound 0.1 µM, first compound 0.316 µM) was 38.2%. It also gave a viability, T/C (second compound 0.1 µM, first compound 1 µM) of 49.5%, a viability, T/C (second compound 0.1 µM, first compound 3.16 µM) of 48.3% and a viability, T/C (second compound 0.1 µM, first compound 10 µM) of 69.6%. For the same compound, the viability, T/C (second compound 0.316 µM, first compound 0.0316 µM) was 99.1%, the viability, T/C (second compound 0.316 µM, first compound 0.1 µM) was 90.6% and the viability, T/C (second compound 0.316 µM, first compound 0.316 µM) was 51.4%. The viability, T/C (second compound 0.316 µM, first compound 1 µM) was 42.5%, the viability, T/C (second compound 0.316 µM, first compound 3.16 µM) was 52% and the viability, T/C (second compound 0.316 µM, first compound 10 µM) was 65.8%. The viability, T/C (second compound 1 µM, first compound 0.0316 µM) was 93.1%, the viability, T/C (second compound 1 µM, first compound 0.1 µM) was 76.1% and the viability, T/C (second compound 1 µM, first compound 0.316 µM) was 39.4%. For the same compound, the viability, T/C (second compound 1 µM, first compound 1 µM) was 75.2%, the viability, T/C (second compound 1 µM, first compound 3.16 µM) was 50% and the viability, T/C (second compound 1 µM, first compound 10 µM) was 53.4%. For the same compound, the viability, T/C (second compound 3.16 µM, first compound 0.0316 µM) was 99.2%, the viability, T/C (second compound 3.16 µM, first compound 0.1 µM) was 84.3% and the viability, T/C (second compound 3.16 µM, first compound 0.316 µM) was 36%. It also gave a viability, T/C (second compound 3.16 µM, first compound 1 µM) of 28.6%, a viability, T/C (second compound 3.16 µM, first compound 3.16 µM) of 52.5% and a viability, T/C (second compound 3.16 µM, first compound 10 µM) of 82%. For the same compound, the viability, T/C (second compound 10 µM, first compound 0.0316 µM) was 83.5%, the viability, T/C (second compound 10 µM, first compound 0.1 µM) was 75.3% and the viability, T/C (second compound 10 µM, first compound 0.316 µM) was 39.2%. It also gave a viability, T/C (second compound 10 µM, first compound 1 µM) of 32.5%, a viability, T/C (second compound 10 µM, first compound 3.16 µM) of 57.5% and a viability, T/C (second compound 10 µM, first compound 10 µM) of 67.5%.

Reference: PubChem BioAssay AID1963825 (Molecular Pharmacology Branch, DTP, NCI, 2024)
